Article PMC8286840, “Identifying SARS-CoV-2 antiviral compounds by screening for small molecule inhibitors of Nsp3 papain-like protease” (Biochemical Journal, 2021)
Counter-ions that a name gives are not always drawn. Like-named read-outs stand apart in the source and are kept apart here.

Tests used:
[1] = biological target: T1, SARS-CoV-2 PLpro (nsp3 1564–1878) (Severe acute respiratory syndrome coronavirus 2, UniProt P0DTD1); experiment: biochemical; set-up: FRET-quenched peptide (Pro3) cleavage by PLpro, 10 min pre-incubation, slope over 20 min, normalised to no-compound control; details: low concentration screen, read-out: % of control remaining
[2] = biological target: T1, SARS-CoV-2 PLpro (nsp3 1564–1878); experiment: biochemical; set-up: FRET-quenched peptide (Pro3) cleavage by PLpro, 10 min pre-incubation, slope over 20 min, normalised to no-compound control; details: high concentration screen, read-out: % of control remaining

In the case of CCOc1cc(C(C)(C)C)ccc1C1=N[C@@](C)(c2ccc(Cl)cc2)[C@@](C)(c2ccc(Cl)cc2)N1C(=O)N1CCN(CC(=O)N2CCOCC2)CC1 [p53 and MDM2 proteins-interaction-inhibitor (dihydrochloride)], the remaining activity at 1.25 µM ([1]; Well no.=6832) is reported as 98.9%, the remaining activity at 1.25 µM ([1]; Well no.=7702) is reported as 107% and the remaining activity at 3.75 µM ([2]; Well no.=6832) is reported as 94.5%. The remaining activity at 3.75 µM ([2]; Well no.=7702) was 106%.
Nc1cc(Cl)c(NC2=NCCN2)c(Cl)c1 [p-Aminoclonidine hydrochloride] showed a remaining activity at 1.25 µM ([1]; Well no.=151) of 102% and a remaining activity at 3.75 µM ([2]; Well no.=151) of 102%.
O=C1C=CC(=O)C=C1 [p-Benzoquinone] gave a remaining activity at 1.25 µM ([1]; Well no.=166) of 102% and a remaining activity at 3.75 µM ([2]; Well no.=166) of 105%.
In the case of N[C@@H](Cc1ccc(F)cc1)C(=O)O [p-Fluoro-L-phenylalanine], the remaining activity at 1.25 µM ([1]; Well no.=707) is reported as 95.3% and the remaining activity at 3.75 µM ([2]; Well no.=707) is reported as 87%.
In the case of O=Cc1ccc(O)cc1 [p-Hydroxybenzaldehyde], the remaining activity at 1.25 µM ([1]; Well no.=6531) is reported as 103% and the remaining activity at 3.75 µM ([2]; Well no.=6531) is reported as 103%.
In the case of O=C(O)C=Cc1ccc(O)cc1 [p-Hydroxycinnamic acid], the remaining activity at 1.25 µM ([1]; Well no.=7161) is reported as 105% and the remaining activity at 3.75 µM ([2]; Well no.=7161) is reported as 103%.
In the case of Clc1cc(I)cc(Cl)c1NC1=NCCN1 [p-Iodoclonidine hydrochloride], the remaining activity at 1.25 µM ([1]; Well no.=873) is reported as 110% and the remaining activity at 3.75 µM ([2]; Well no.=873) is reported as 113%.
COc1ccccc1N1CCN(CCN(C(=O)c2ccc(F)cc2)c2ccccn2)CC1 [p-MPPF dihydrochloride] gave a remaining activity at 1.25 µM ([1]; Well no.=899) of 100% and a remaining activity at 3.75 µM ([2]; Well no.=899) of 101%.
COc1ccccc1N1CCN(CCN(C(=O)c2ccc(I)cc2)c2ccccn2)CC1 [p-MPPI hydrochloride] was tested, and the remaining activity at 1.25 µM ([1]; Well no.=1137) was 97.8% and the remaining activity at 3.75 µM ([2]; Well no.=1137) was 102%.
Molecule CNCC(O)c1ccc(O)cc1 (centres unmarked) [p-Synephrine] has a remaining activity at 1.25 µM ([1]; Well no.=7313) of 98.5% and a remaining activity at 3.75 µM ([2]; Well no.=7313) of 102%.
COc1cc(C(=O)c2ccc3ncccc3c2)cc(OC)c1OC [quinolin-6-yl(3,4,5-trimethoxyphenyl)methanone] gave a remaining activity at 1.25 µM ([1]; Well no.=6127) of 99.8% and a remaining activity at 3.75 µM ([2]; Well no.=6127) of 97.9%.
Work on O[C@H]1[C@H](O)[C@@H](O)[C@H](O)[C@@H](O)[C@@H]1O [scyllo -Inositol] yielded a remaining activity at 1.25 µM ([1]; Well no.=5379) of 104% and a remaining activity at 3.75 µM ([2]; Well no.=5379) of 102%.
C[N+](C)(C)CCOP(=O)([O-])OC[C@H](O)CO [sn-Glycero-3-phosphocholine] was tested, and the remaining activity at 1.25 µM ([1]; Well no.=7303) was 106% and the remaining activity at 3.75 µM ([2]; Well no.=7303) was 106%.
In the case of COCCCOc1ccnc(C[S+]([O-])c2nc3ccccc3[nH]2)c1C (centres unmarked) [sodium 2-((4-(3-methoxypropoxy)-3-methylpyridin-2-yl)methylsulfinyl)benzo[d]imidazol-1-ide], the remaining activity at 1.25 µM ([1]; Well no.=6070) is reported as 95.8% and the remaining activity at 3.75 µM ([2]; Well no.=6070) is reported as 93.7%.
COc1ccnc(C[S+]([O-])c2nc3cc(OC(F)F)ccc3[nH]2)c1OC (centres unmarked) [sodium 5-(difluoromethoxy)-2-((3,4-dimethoxypyridin-2-yl)methylsulfinyl)benzo[d]imidazol-1-ide hydrate] showed a remaining activity at 1.25 µM ([1]; Well no.=5829) of 95.3% and a remaining activity at 3.75 µM ([2]; Well no.=5829) of 96.9%.
With CC(C)(C)C(=O)Oc1ccc(S(=O)(=O)Nc2ccccc2C(=O)NCC(=O)O)cc1 [sodium ({2-[({4-[(2,2-dimethylpropanoyl)oxy]phenyl}sulfonyl)amino]benzoyl}amino)acetate hydrate] the remaining activity at 1.25 µM ([1]; Well no.=5452) was 95.1% and the remaining activity at 3.75 µM ([2]; Well no.=5452) was 101%.
Molecule CC(C)(C)c1cc(O)ccc1O [tert-Butylhydroquinone] has a remaining activity at 1.25 µM ([1]; Well no.=3861) of 98% and a remaining activity at 3.75 µM ([2]; Well no.=3861) of 97.9%.
Molecule N[C@]1(C(=O)O)CC[C@H](C(=O)O)C1 [trans-ACPD] has a remaining activity at 1.25 µM ([1]; Well no.=7040) of 98.2% and a remaining activity at 3.75 µM ([2]; Well no.=7040) of 96.7%.
In the case of O=C(O)/C=C(\CC(=O)O)C(=O)O [trans-Aconitic acid], the remaining activity at 1.25 µM ([1]; Well no.=6827) is reported as 94.2% and the remaining activity at 3.75 µM ([2]; Well no.=6827) is reported as 95.7%.
Molecule O=C(O)/C=C/C=C/C(=O)O [trans-trans-Muconic acid] has a remaining activity at 1.25 µM ([1]; Well no.=6589) of 103% and a remaining activity at 3.75 µM ([2]; Well no.=6589) of 106%.
Nc1ncnc2c1C(=O)N(c1ccc(C3CCC(CC(=O)O)CC3)cc1)CCO2 (centres unmarked) [{4-[4-(4-amino-5-oxo-7,8-dihydropyrimido[5,4-f][1,4]oxazepin-6(5H)-yl)phenyl]cyclohexyl}acetic acid] gave a remaining activity at 1.25 µM ([1]; Well no.=5830) of 105% and a remaining activity at 3.75 µM ([2]; Well no.=5830) of 103%.
